Several values for one entry are separate records, joined by “and”; a condition that tells them apart may be missing. Equal values may be shown once. Entries after “also recorded” stand apart in the source; their conditions may differ. Read-outs that look alike come from different tables or passages of the source.
Legend:
[1] = cited from earlier work
[2] = cited from earlier work; for average mean serum concentration: pediatric patients with juvenile rheumatoid arthritis
[3] = system: patients with active rheumatoid arthritis; conditions: cited from earlier work; for median Disease Activity Score (DAS28) / number of swollen joints / number of tender joints / patients with an ACR20 response: 24 weeks; for patients achieving ACR20: starting dose 15 mg per week; for median Health Assessment Questionnaire (HAQ) score / patients achieving an ACR70 response: week 24; for time to achieve an ACR20 response: same subgroup (n=98); for ACR20 responders: subgroup >1 year between diagnosis and study entry with prior antirheumatic compounds or steroids (n=98)
[4] = system: patients with rheumatoid arthritis; conditions: cited from earlier work
[5] = 15 mg, 10 rheumatoid arthritis patients, cited from earlier work
[6] = cited from earlier work; remark: listed apart in the source
[7] = system: rheumatoid arthritis patients; conditions: cited from earlier work
[8] = oral, 5 mg/m^2 per week increased to 10 mg/m^2 per week, 46 patients; cited from earlier work
[9] = Pharmacokinetics of methotrexate in minipig plasma after subcutaneous injection with autoinjector or needle/syringe
[10] = Female, Auto injector, SC, Dose Level 12.5, individual animals
[11] = Female, Syringe, SC, Dose Level 12.5, individual animals
[12] = Male, Auto injector, SC, Dose Level 12.5, individual animals
[13] = Male, Syringe, SC, Dose Level 12.5, individual animals

## CN(Cc1cnc2nc(N)nc(N)c2n1)c1ccc(C(=O)N[C@@H](CCC(=O)O)C(=O)O)cc1 [Methotrexate, L-(+)—N-[p-[[(2,4-Diamino-6-pteridinyl)methyl]methylamino]-benzoyl]glutamic acid]
[1]; after switch from oral to intramuscular administration at 15 mg per week
  average DAS28: 5.2
[1]; before switch from oral to intramuscular administration at 15 mg per week
  average DAS28: 5.6
[1]; intramuscular dosage escalated 15 to 45 mg per week, 54 patients who did not achieve DAS28<3.2
  disease improvement compared to placebo: no difference in disease improvement
[2]; after intravenous administration
  initial average distribution volume: about 0.18 L/kg
[2]; human, in vivo
  absorption from parenteral routes of injection: completely absorbed
[2]; at about 1 hour
  average mean serum concentration: about 0.59 μM
[2]; at about 3 hours
  average mean serum concentration: about 0.29 μM
[3]; 16 weeks, of the total tested (52 patients)
  patients classified as ACR20 non-responders: 14%
[3]; oral
  median Disease Activity Score (DAS28): 3.7
  number of swollen joints: 3
  number of tender joints: 6
  patients with an ACR20 response: 70%
  median Health Assessment Questionnaire (HAQ) score: 0.5
  patients achieving an ACR70 response: 33%
  time to achieve an ACR20 response: 6 weeks
  ACR20 responders: 63%
[3]; oral, 16 weeks
  patients achieving ACR20: 77%
[3]; same dose
  rate of adverse events, subcutaneous versus oral: not accompanied by a significantly higher rate of adverse events
[3]; subcutaneous dosage increased from 15 mg to 20 mg
  further non-responders with positive ACR20 response after dose increase: 23%
[3]; subcutaneous
  median Disease Activity Score (DAS28): 3.3
  number of swollen joints: 2
  number of tender joints: 3.5
  patients with an ACR20 response: 78%
  median Health Assessment Questionnaire (HAQ) score: 0.4
  patients achieving an ACR70 response: 41%
  time to achieve an ACR20 response: 4 weeks
  ACR20 responders: 89%
[3]; subcutaneous, 16 weeks
  patients achieving ACR20: 85%
[3]; switched from 15 mg oral to 15 mg subcutaneous
  non-responders with positive ACR20 response after switch: 30%
[4]; after switching to oral
  patients reporting nausea: 48%
[4]; switched back to intramuscular
  patients reporting nausea: 40%
[5]; fasting
  oral bioavailability: 67%
[5]; fed
  oral bioavailability: 63%
[6]; 12.5 mg to 25 mg per week
  peak serum concentrations and bioavailability, intramuscular versus subcutaneous: similar
[6]; in 4 out of 5 patients tested
  Tmax after subcutaneous versus intramuscular administration: faster
[7]; 10 mg to 15 mg intramuscular once a week, 78 rheumatoid arthritis patients
  patients judged to have moderate or marked improvement: Eighty-two
[7]; of the 48 patients who switched to oral
  patients who deteriorated after switch to oral and improved after switching back to intramuscular: 10 patients
[8]
  effect of higher doses: dose-related efficacy response together with a trend toward increased toxicity
[9]; Female, autoinjector, Day 8, attributed to carryover of the instrument, LLOQ=0.2 ng/mL
  Methotrexate in samples collected prior to dosing: 3.19 ng/mL
[9]; [10]
  AUC(0-mx): 2501 ng·mL·h and 3172 ng·mL·h
  AUC(0-t): 2498 ng·mL·h and 3169 ng·mL·h
  T½: 3.91 h and 3.95 h
[9]; Female, Autoinjector, Day 8, individual animals
  AUC(0-t): 3169 ng·h/mL
[9]; Female, Needle/Syringe, Day 1, individual animals
  AUC(0-t): 2669 ng·h/mL and 1831 ng·h/mL
[9]; [11]
  AUC(0-mx): 2675 ng·mL·h and 1832 ng·mL·h
  AUC(0-t): 2669 ng·mL·h and 1831 ng·mL·h
  Tmax: 0.50 h
  T½: 4.90 h and 2.53 h
[9]; [12]
  AUC(0-mx): 1903 ng·mL·h and 1407 ng·mL·h
  AUC(0-t): 1901 ng·mL·h and 1405 ng·mL·h
  T½: 2.00 h and 1.81 h
[9]; Male, Autoinjector, Day 1, individual animals
  AUC(0-t): 1405 ng·h/mL and 1162 ng·h/mL
[9]; Male, Needle/Syringe, Day 8, individual animals
  AUC(0-t): 2016 ng·h/mL and 1324 ng·h/mL
[9]; [13]
  AUC(0-t): 2464 ng·mL·h and 2016 ng·mL·h
  Tmax: 0.50 h
[9]; SC 12.5 mg, both devices
  difference in exposure / PK parameters between males and females: no marked difference; also recorded: no marked sex-related differences
[9]; SC 12.5 mg, male and female minipigs
  exposure with autoinjector compared with needle/syringe: very similar; also recorded: comparable
[9]; both devices, SC 12.5 mg, first collection time point
  time at which maximal plasma concentrations were generally observed: 0.25 h
[9]; both, Gottingen, minipig, plasma, subcutaneous, 12.5 mg, terminal elimination half-life, range over animals and both devices, where it could be estimated
  half-life: 1.81 to 4.9 h
[9]; female, Gottingen, minipig, plasma, sc, 12.5 mg, AUC(0-t), Female, Autoinjector, Day 8, individual animals
  AUC(0-t): 2500 ng·h/mL
[9]; female, Gottingen, minipig, plasma, sc, 12.5 mg, AUC(0-t), Female, Needle/Syringe, Day 1, individual animals
  AUC(0-t): 2380 ng·h/mL
[9]; female, Gottingen, minipig, plasma, sc, […], Tmax, Auto injector, Dose Level 12.5, Median value
  Tmax: 0.25 h
[9]; female, Gottingen, minipig, plasma, sc, […], Tmax, Auto injector, Dose Level 12.5, individual animals
  Tmax: 0.25 h
[9]; female, Gottingen, minipig, plasma, sc, […], Tmax, Syringe, Dose Level 12.5, Median value
  Tmax: 0.25 h
[9]; female, Gottingen, minipig, plasma, sc, […], Tmax, Syringe, Dose Level 12.5, individual animals
  Tmax: 0.25 h
[9]; female, Gottingen, minipig, plasma, sc, […], T½, Auto injector, Dose Level 12.5, Mean
  half-life: 3.71 h
[9]; female, Gottingen, minipig, plasma, sc, […], T½, Auto injector, Dose Level 12.5, individual animals
  half-life: 3.26 h
[9]; female, Gottingen, minipig, plasma, sc, […], T½, Syringe, Dose Level 12.5, Mean
  half-life: 3.39 h
[9]; female, Gottingen, minipig, plasma, sc, […], T½, Syringe, Dose Level 12.5, individual animals
  half-life: 2.74 h
[9]; male, Gottingen, minipig, plasma, sc, 12.5 mg, AUC(0-t), Male, Autoinjector, Day 1, individual animals
  AUC(0-t): 1900 ng·h/mL
[9]; male, Gottingen, minipig, plasma, sc, 12.5 mg, AUC(0-t), Male, Needle/Syringe, Day 8, individual animals
  AUC(0-t): 2460 ng·h/mL
[9]; male, Gottingen, minipig, plasma, sc, […], Concentration of Methotrexate in plasma, Males, Autoinjector, 24 h, individual animals, BQL = below quantitation limit 0.200 ng/mL
  concentration at 24 h: 0.696 ng/mL
[9]; male, Gottingen, minipig, plasma, sc, […], Tmax, Auto injector, Dose Level 12.5, Median value
  Tmax: 0.25 h
[9]; male, Gottingen, minipig, plasma, sc, […], Tmax, Auto injector, Dose Level 12.5, individual animals
  Tmax: 0.25 h
[9]; male, Gottingen, minipig, plasma, sc, […], Tmax, Syringe, Dose Level 12.5, Median value
  Tmax: 0.25 h
[9]; male, Gottingen, minipig, plasma, sc, […], Tmax, Syringe, Dose Level 12.5, individual animals
  Tmax: 0.25 h
[9]; male, Gottingen, minipig, plasma, sc, […], T½, Auto injector, Dose Level 12.5, Mean
  half-life: 1.92 h
[9]; male, Gottingen, minipig, plasma, sc, […], T½, Auto injector, Dose Level 12.5, individual animals
  half-life: 1.95 h
[9]; male, Gottingen, minipig, plasma, sc, […], T½, Syringe, Dose Level 12.5, individual animals
  half-life: 1.91 h

— patent US12357642B2, “Hazardous agent injection system” (Antares Pharma, Inc., priority 2009, dated 2025)
